Literature values as cited in US12606719B2, “Methods and compositions comprising biodegradable cyanoacrylates” (FEMASYS, INC., priority 2017, dated 2026).

Conditions: versus cyanoacrylates that degrade by chain scission

hydrophilicity: more hydrophilic
Substance: methoxypropyl cyanoacrylate
